One molecule from paper PMC8619641, “The Antileukemic Effect of Xestoquinone, A Marine-Derived Polycyclic Quinone-Type Metabolite, Is Mediated through ROS-Induced Inhibition of HSP-90” (Molecules, 2021) can be followed below.

This assay addresses T1, topo IIα (Topo II) (Homo sapiens, UniProt P11388).
T1 construct: gene TOP2A
The experiment in a line: cell-free supercoiled pHOT1 plasmid DNA relaxation assay. Type of assay: biochemical.

T1 sequence (P11388 whole entry): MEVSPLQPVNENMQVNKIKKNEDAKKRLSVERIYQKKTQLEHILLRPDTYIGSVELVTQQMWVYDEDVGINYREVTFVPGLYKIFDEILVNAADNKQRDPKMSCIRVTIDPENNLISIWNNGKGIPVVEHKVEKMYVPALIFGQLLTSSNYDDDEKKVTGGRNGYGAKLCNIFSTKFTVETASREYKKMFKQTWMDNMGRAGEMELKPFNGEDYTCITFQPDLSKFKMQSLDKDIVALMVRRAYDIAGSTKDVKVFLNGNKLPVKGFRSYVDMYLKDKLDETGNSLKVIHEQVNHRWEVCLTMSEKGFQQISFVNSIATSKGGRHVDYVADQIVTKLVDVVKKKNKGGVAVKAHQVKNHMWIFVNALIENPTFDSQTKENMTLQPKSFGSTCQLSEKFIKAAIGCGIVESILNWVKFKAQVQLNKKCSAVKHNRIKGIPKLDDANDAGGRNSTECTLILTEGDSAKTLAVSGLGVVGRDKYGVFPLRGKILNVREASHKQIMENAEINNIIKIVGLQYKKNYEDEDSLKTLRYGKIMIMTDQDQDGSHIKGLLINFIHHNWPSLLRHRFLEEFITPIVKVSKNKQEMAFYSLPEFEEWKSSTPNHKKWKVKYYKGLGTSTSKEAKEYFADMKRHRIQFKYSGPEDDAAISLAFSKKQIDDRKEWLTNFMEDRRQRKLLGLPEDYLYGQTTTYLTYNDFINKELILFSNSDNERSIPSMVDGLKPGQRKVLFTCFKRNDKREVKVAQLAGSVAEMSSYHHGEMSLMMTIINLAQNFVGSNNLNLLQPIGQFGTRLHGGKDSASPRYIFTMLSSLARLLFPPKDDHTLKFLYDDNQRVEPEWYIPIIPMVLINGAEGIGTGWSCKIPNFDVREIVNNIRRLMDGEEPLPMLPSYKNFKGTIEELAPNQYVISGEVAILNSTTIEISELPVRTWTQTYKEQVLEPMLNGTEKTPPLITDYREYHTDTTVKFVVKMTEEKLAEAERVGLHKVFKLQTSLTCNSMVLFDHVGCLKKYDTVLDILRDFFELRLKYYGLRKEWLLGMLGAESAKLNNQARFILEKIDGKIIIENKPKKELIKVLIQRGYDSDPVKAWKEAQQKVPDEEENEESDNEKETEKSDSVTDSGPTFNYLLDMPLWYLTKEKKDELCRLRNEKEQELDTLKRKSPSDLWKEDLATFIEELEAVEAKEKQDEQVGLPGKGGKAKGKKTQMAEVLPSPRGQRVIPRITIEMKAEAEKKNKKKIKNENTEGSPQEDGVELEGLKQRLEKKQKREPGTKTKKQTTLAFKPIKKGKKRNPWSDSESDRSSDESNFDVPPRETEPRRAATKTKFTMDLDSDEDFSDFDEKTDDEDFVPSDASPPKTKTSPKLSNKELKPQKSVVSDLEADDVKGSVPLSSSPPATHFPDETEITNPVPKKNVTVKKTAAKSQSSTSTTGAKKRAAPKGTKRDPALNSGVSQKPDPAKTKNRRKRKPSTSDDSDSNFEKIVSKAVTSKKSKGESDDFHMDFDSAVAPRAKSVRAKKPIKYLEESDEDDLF

In the case of `C[C@@]12CCCc3coc(c31)C(=O)c1cc3c(cc12)C(=O)C=CC3=O` [XQ, xestoquinone], the IC50 stood at 94 nM.
